From US6727237B2, “Inhibitors of bacterial NAD synthetase” (priority 1998, dated 2004)

Target: T1, bacterial NAD synthetase enzyme (Bacillus subtilis, UniProt P08164)
T1 sequence (P08164 2-272 limits assumed): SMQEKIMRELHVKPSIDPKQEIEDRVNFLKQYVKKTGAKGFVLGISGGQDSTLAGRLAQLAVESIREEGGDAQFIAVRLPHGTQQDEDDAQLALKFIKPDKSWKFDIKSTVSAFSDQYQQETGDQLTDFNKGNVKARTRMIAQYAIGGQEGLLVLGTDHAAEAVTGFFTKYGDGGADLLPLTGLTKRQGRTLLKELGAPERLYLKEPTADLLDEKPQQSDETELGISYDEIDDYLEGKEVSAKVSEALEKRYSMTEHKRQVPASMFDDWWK
Test: biochemical
Assay type: biochemical

[1] = compound at 0.2 mM (Table 312A)

| Structure (SMILES) | % Inhibition (compound at 0.25 mM) [%] | IC50 [µM] | other results |
| --- | --- | --- | --- |
| C[N+](C)(C)c1cccc(C(=O)OCCCCc2cc3cc(Oc4ccccc4)ccc3[nH]2)c1 [Compound 871] | 81.9 |  |  |
| C[N+](C)(C)c1cccc(C(=O)OCCCCCCCc2cc3cc(Oc4ccccc4)ccc3[nH]2)c1 [Compound 872] |  | 50 | inhibition at 100 µM: 98.3% |
| C[N+](C)(C)c1cccc(C(=O)OCCCCCCCCc2cc3cc(Oc4ccccc4)ccc3[nH]2)c1 [Compound 873] | 98.0 |  |  |
| CC(C)c1ccc2[nH]c(CCCCCCCOC(=O)c3cccc([N+](C)(C)C)c3)cc2c1 [Compound 875] |  | 45 | inhibition at 100 µM: 93.6% |
| CC(C)c1ccc2[nH]c(CCCCCCCCOC(=O)c3cccc([N+](C)(C)C)c3)cc2c1 [Compound 876] |  | 75 | inhibition at 100 µM: 95.4% |
| CC(=O)c1ccc2[nH]c(CCCCOC(=O)c3cccc([N+](C)(C)C)c3)cc2c1 [Compound 877] | 98.3 |  |  |
| CC(=O)c1ccc2[nH]c(CCCCCCCOC(=O)c3cccc([N+](C)(C)C)c3)cc2c1 [Compound 878] |  | 80 | inhibition at 100 µM: 96.4% |
| CC(=O)c1ccc2[nH]c(CCCCCCCCOC(=O)c3cccc([N+](C)(C)C)c3)cc2c1 [Compound 879] |  | 40 | inhibition at 100 µM: 99.6% |
| C[N+](C)(C)c1cccc(C(=O)OCCCCc2cc3cc(C(=O)c4ccccc4)ccc3[nH]2)c1 [Compound 880] | 96.7 |  |  |
| C[N+](C)(C)c1cccc(C(=O)OCCCCCCCc2cc3cc(C(=O)c4ccccc4)ccc3[nH]2)c1 [Compound 881] |  |  | % Inhibition (compound at 0.1 mM (Table 314)): 90.89% |
| C[N+](C)(C)c1cccc(C(=O)OCCCCCCCCc2cc3cc(C(=O)c4ccccc4)ccc3[nH]2)c1 [Compound 882] |  | 90 | inhibition at 100 µM: 94.5% |
| C[N+](C)(C)c1ccc(C(=O)OCCCCCCCc2cc3ccc(C(F)(F)F)cc3[nH]2)cc1 [Compound 884] |  | 45 |  |
| C[N+](C)(C)c1ccc(C(=O)OCCCCCCCCc2cc3ccc(C(F)(F)F)cc3[nH]2)cc1 [Compound 885] | 98.0 |  |  |
| C[N+](C)(C)c1ccc(C(=O)OCCCCc2cc3cc(Oc4ccccc4)ccc3[nH]2)cc1 [Compound 886] |  | 80 | inhibition at 100 µM: 94.5% |
| C[N+](C)(C)c1ccc(C(=O)OCCCCCCCc2cc3cc(Oc4ccccc4)ccc3[nH]2)cc1 [Compound 887] |  | 25 |  |
| C[N+](C)(C)c1ccc(C(=O)OCCCCCCCCc2cc3cc(Oc4ccccc4)ccc3[nH]2)cc1 [Compound 888] | 99.0 |  |  |
| CC(C)c1ccc2[nH]c(CCCCOC(=O)c3ccc([N+](C)(C)C)cc3)cc2c1 [Compound 889] |  | 75 | inhibition at 100 µM: 93.6% |
| CC(C)c1ccc2[nH]c(CCCCCCCCOC(=O)c3ccc([N+](C)(C)C)cc3)cc2c1 [Compound 891] |  | 80 | inhibition at 250 µM: 99.9% |
| CC(=O)c1ccc2[nH]c(CCCCOC(=O)c3ccc([N+](C)(C)C)cc3)cc2c1 [Compound 892] | 97.7 |  |  |
| CC(=O)c1ccc2[nH]c(CCCCCCCOC(=O)c3ccc([N+](C)(C)C)cc3)cc2c1 [Compound 893] | 13.8 |  |  |
| CC(=O)c1ccc2[nH]c(CCCCCCCCOC(=O)c3ccc([N+](C)(C)C)cc3)cc2c1 [Compound 894] |  | 50 | inhibition at 100 µM: 91.1% |
| C[N+](C)(C)c1ccc(C(=O)OCCCCc2cc3cc(C(=O)c4ccccc4)ccc3[nH]2)cc1 [Compound 895] | 95.7 |  |  |
| C[N+](C)(C)c1ccc(C(=O)OCCCCCCCCc2cc3cc(C(=O)c4ccccc4)ccc3[nH]2)cc1 [Compound 897] | 50.9 |  |  |

| Structure (SMILES) | % Inhibition (compound at 0.25 mM) [%] | IC50 [µM] | other results |
| --- | --- | --- | --- |
| C[n+]1ccc(C(=O)OCCCCc2cc3ccc(C(F)(F)F)cc3[nH]2)cc1 [Compound 898] | 51.8 |  |  |
| C[n+]1ccc(C(=O)OCCCCCCCCc2cc3ccc(C(F)(F)F)cc3[nH]2)cc1 [Compound 900] | 84.9 |  |  |
| C[n+]1ccc(C(=O)OCCCCc2cc3cc(Oc4ccccc4)ccc3[nH]2)cc1 [Compound 901] | 32.8 |  |  |
| C[n+]1ccc(C(=O)OCCCCCCCCc2cc3cc(Oc4ccccc4)ccc3[nH]2)cc1 [Compound 903] | 95.5 |  |  |
| CC(C)c1ccc2[nH]c(CCCCOC(=O)c3cc[n+](C)cc3)cc2c1 [Compound 904] |  |  | % Inhibition (compound at 0.1 mM (Table 314)): 47.68% |
| CC(C)c1ccc2[nH]c(CCCCCCCCOC(=O)c3cc[n+](C)cc3)cc2c1 [Compound 906] |  | 25 |  |
| CC(=O)c1ccc2[nH]c(CCCCOC(=O)c3cc[n+](C)cc3)cc2c1 [Compound 907] | 20.6 |  |  |
| CC(=O)c1ccc2[nH]c(CCCCCCCCOC(=O)c3cc[n+](C)cc3)cc2c1 [Compound 909] |  | 25 | inhibition at 100 µM: 97.2% |
| C[n+]1ccc(C(=O)OCCCCc2cc3cc(C(=O)c4ccccc4)ccc3[nH]2)cc1 [Compound 910] | 88.5 |  |  |
| C[n+]1ccc(C(=O)OCCCCCCCCc2cc3cc(C(=O)c4ccccc4)ccc3[nH]2)cc1 [Compound 912] | 27.6 |  |  |
| C[n+]1cccc(C(=O)OCCCCc2cc3ccc(C(F)(F)F)cc3[nH]2)c1 [Compound 913] | 7.6 |  |  |
| C[n+]1cccc(C(=O)OCCCCCCCCc2cc3ccc(C(F)(F)F)cc3[nH]2)c1 [Compound 915] | 95.7 |  |  |
| C[n+]1cccc(C(=O)OCCCCCCCc2cc3cc(Oc4ccccc4)ccc3[nH]2)c1 [Compound 917] |  | 60 | inhibition at 250 µM: 88.9% |
| C[n+]1cccc(C(=O)OCCCCCCCCc2cc3cc(Oc4ccccc4)ccc3[nH]2)c1 [Compound 918] | 98.6 |  |  |
| CC(C)c1ccc2[nH]c(CCCCOC(=O)c3ccc[n+](C)c3)cc2c1 [Compound 919] | 90.2 |  |  |
| CC(C)c1ccc2[nH]c(CCCCCCCCOC(=O)c3ccc[n+](C)c3)cc2c1 [Compound 921] |  | 25 | inhibition at 100 µM: 96.7% |
| CC(=O)c1ccc2[nH]c(CCCCOC(=O)c3ccc[n+](C)c3)cc2c1 [Compound 922] | 87.4 |  |  |
| CC(=O)c1ccc2[nH]c(CCCCCCCCOC(=O)c3ccc[n+](C)c3)cc2c1 [Compound 924] |  | 25 | inhibition at 100 µM: 97.7% |
| C[n+]1cccc(C(=O)OCCCCCCCCc2cc3cc(C(=O)c4ccccc4)ccc3[nH]2)c1 [Compound 927] | 93.1 |  |  |
| C[n+]1cccc(CC(=O)OCCCCCCCCc2cc3ccc(C(F)(F)F)cc3[nH]2)c1 [Compound 930] | 96.7 |  |  |
| C[n+]1cccc(CC(=O)OCCCCc2cc3cc(Oc4ccccc4)ccc3[nH]2)c1 [Compound 931] | 15.8 |  |  |
| CC(C)c1ccc2[nH]c(CCCCOC(=O)Cc3ccc[n+](C)c3)cc2c1 [Compound 934] | 98.5 |  |  |
| CC(C)c1ccc2[nH]c(CCCCCCCCOC(=O)Cc3ccc[n+](C)c3)cc2c1 [Compound 936] |  | 60 | inhibition at 100 µM: 97.8% |

| Structure (SMILES) | % Inhibition (compound at 0.25 mM) [%] | IC50 [µM] | other results |
| --- | --- | --- | --- |
| CC(=O)c1ccc2[nH]c(CCCCOC(=O)Cc3ccc[n+](C)c3)cc2c1 [Compound 937] | 88.8 |  |  |
| CC(=O)c1ccc2[nH]c(CCCCCCCOC(=O)Cc3ccc[n+](C)c3)cc2c1 [Compound 938] | 98.8 |  |  |
| C[n+]1cccc(CC(=O)OCCCCCCCc2cc3cc(C(=O)c4ccccc4)ccc3[nH]2)c1 [Compound 941] |  | 50 | inhibition at 100 µM: 100% |
| C[n+]1cccc(CC(=O)OCCCCCCCCc2cc3cc(C(=O)c4ccccc4)ccc3[nH]2)c1 [Compound 942] |  | 75 | inhibition at 100 µM: 97.8% |
| O=C(OCCCCCCn1ccc2ccccc21)c1cccnc1 [Compound 943] |  |  | % Inhibition (compound at 0.1 mM (Table 314)): 21.38% |
| O=C(OCCCCCCCn1ccc2ccccc21)c1cccnc1 [Compound 944] |  |  | % Inhibition (compound at 0.05 mM): 2.06% |
| COC(=O)c1cc2ccccc2n1CCCCCCCCCOC(=O)c1cccnc1 [Compound 950] |  |  | % Inhibition (compound at 0.05 mM): 7.32% |
| COC(=O)c1cc2ccccc2n1CCCCCCCOC(=O)Cc1ccc(N(C)C)cc1 [Compound 960] |  |  | % Inhibition (compound at 0.05 mM): 6.37% |
| COC(=O)c1cc2cc(OCc3ccccc3)ccc2n1CCCCCCCOC(=O)Cc1ccc(N(C)C)cc1 [Compound 964] |  |  | % Inhibition (compound at 0.05 mM): 1.18% |
| COC(=O)c1cc2cc(OCc3ccccc3)ccc2n1CCCCCCCCOC(=O)Cc1ccc(N(C)C)cc1 [Compound 965] |  |  | % Inhibition (compound at 0.1 mM (Table 314)): 8.48% |
| COC(=O)c1cc2cc(OCc3ccccc3)ccc2n1CCCCCCCCCOC(=O)Cc1ccc(N(C)C)cc1 [Compound 966] |  |  | % Inhibition (compound at 0.05 mM): 8.25% |
| C[n+]1cccc(C(=O)OCCCCCCn2ccc3ccccc32)c1 [Compound 967] |  |  | % Inhibition [1]: 19.51% |
| C[n+]1cccc(C(=O)OCCCCCCCn2ccc3ccccc32)c1 [Compound 968] |  |  | % Inhibition [1]: 88.52% |
| C[n+]1cccc(C(=O)OCCCCCCCCn2ccc3ccccc32)c1 [Compound 969] |  |  | % Inhibition [1]: 83.16% |
| C[n+]1cccc(C(=O)OCCCCCCCCCn2ccc3ccccc32)c1 [Compound 970] |  | 55 | inhibition at 200 µM: 96.7% |
| COC(=O)c1cc2ccccc2n1CCCCCCOC(=O)c1ccc[n+](C)c1 [Compound 971] |  |  | % Inhibition (compound at 0.1 mM (Table 314)): 100.00% |
| COC(=O)c1cc2ccccc2n1CCCCCCCOC(=O)c1ccc[n+](C)c1 [Compound 972] |  | 40 | inhibition at 100 µM: 96.8% |
| COC(=O)c1cc2ccccc2n1CCCCCCCCOC(=O)c1ccc[n+](C)c1 [Compound 973] |  | 45 | inhibition at 100 µM: 97.8% |
| COC(=O)c1cc2ccccc2n1CCCCCCCCCOC(=O)c1ccc[n+](C)c1 [Compound 974] |  | 35 | inhibition at 100 µM: 88.2% |
| COC(=O)c1cc2cc(OCc3ccccc3)ccc2n1CCCCCCOC(=O)c1ccc[n+](C)c1 [Compound 975] |  | 38 | inhibition at 100 µM: 55.2% |
| COC(=O)c1cc2cc(OCc3ccccc3)ccc2n1CCCCCCCCCOC(=O)c1ccc[n+](C)c1 [Compound 978] |  |  | % Inhibition (compound at 0.1 mM (Table 314)): 80.31% |
| C[N+](C)(C)c1ccc(CC(=O)OCCCCCCn2ccc3ccccc32)cc1 [Compound 979] |  |  | % Inhibition [1]: 38.72% |
